Assays:
[1] = biological target: T7 RNA polymerase (Escherichia phage T7, UniProt P00573); experiment: In vitro transcription (IVT) of mRNA with modified NTP; format: biochemical; conditions: modified NTP at 100% substitution of the corresponding natural nucleotide; human leptin template; yield as percent of unmodified mRNA yield
Excerpt: The modified synthetic mRNA was generated by in vitro transcription (IVT) incorporating the chemically modified nucleotide triphosphate (NTP) at 100% substitution of the corresponding natural nucleotide. The IVT plasmid template used contained a T7 promoter sequence and the human leptin coding sequence (Protein Accession #NP_000221) flanked by a 5′ untranslated region (UTR) of Tobacco Etch Virus with a strong Kozak sequence, and 2 tandem copies of the human beta-globin 3′UTR (Holtkamp S et al. (2006) Blood 108: 4009-4017) followed by a poly-A tail comprising 120 nucleotides in length.
A typical in vitro transcription reaction was done using the following protocol:
The IVT reagents in the Table above were mixed and incubated for 1-2 hours at 37° C. The DNA template was then digested with 0.04 U/μL DNase (New England Biolabs), and incubated for 30 minutes at 37° C. The mRNA was precipitated by adding lithium chloride (LiCl) solution (Ambion, Cat. #AM9480) to a final concentration of 2.81 M and incubating for >1 hour at −20° C. The mixture was centrifuged at 20,000×g for 15 minutes at 4° C., and then the supernatant was removed and the pellet washed with 70% ethanol. After centrifugation for 10 minutes, the ethanol was removed and the pellet was resuspended in nuclease-free water. In cases where the mRNA is used for HPLC purification, a second precipitation was done by adding 10% volume of 3 M sodium acetate pH 5.5 and 1 volume of room temperature isopropanol followed by incubation overnight at −20° C. The mRNA was centrifuged, washed and resuspended as described above. mRNA concentration was quantified using the NanoDrop and analyzed using an Agilent 2100 Bioanalyzer to confirm proper size and quality (i.e. no degradation). The modified mRNA can then be stored at −80° C. until capping.

[2] = test system: HEK293 cells; experiment: Modified mRNA transfection and in vitro translation (secreted leptin ELISA); format: cell-based; conditions: 1.5 micrograms capped leptin mRNA, Lipofectamine 2000, secreted leptin in medium at 24 h post-transfection
Description: Prior to transfection, the cells were seeded at a density 5×10^5 cells per well in 6-well plates. The following day, 1.5 micrograms of capped unmodified or chemically modified leptin mRNA was complexed with Lipofectamine 2000 (Life Technologies) and transfected into cells according to the manufacturer's protocol. At 24 h post-transfection, secreted leptin protein concentration in the culture medium was measured by an Enzyme-linked immunosorbent assay (ELISA) using the Human Leptin Quantikine ELISA kit from R&D Systems (Minneapolis, Minn.). Protein expression levels for chemically modified mRNAs are shown as a percent of the unmodified mRNA level.

T7 RNA polymerase, sequence (P00573 whole entry): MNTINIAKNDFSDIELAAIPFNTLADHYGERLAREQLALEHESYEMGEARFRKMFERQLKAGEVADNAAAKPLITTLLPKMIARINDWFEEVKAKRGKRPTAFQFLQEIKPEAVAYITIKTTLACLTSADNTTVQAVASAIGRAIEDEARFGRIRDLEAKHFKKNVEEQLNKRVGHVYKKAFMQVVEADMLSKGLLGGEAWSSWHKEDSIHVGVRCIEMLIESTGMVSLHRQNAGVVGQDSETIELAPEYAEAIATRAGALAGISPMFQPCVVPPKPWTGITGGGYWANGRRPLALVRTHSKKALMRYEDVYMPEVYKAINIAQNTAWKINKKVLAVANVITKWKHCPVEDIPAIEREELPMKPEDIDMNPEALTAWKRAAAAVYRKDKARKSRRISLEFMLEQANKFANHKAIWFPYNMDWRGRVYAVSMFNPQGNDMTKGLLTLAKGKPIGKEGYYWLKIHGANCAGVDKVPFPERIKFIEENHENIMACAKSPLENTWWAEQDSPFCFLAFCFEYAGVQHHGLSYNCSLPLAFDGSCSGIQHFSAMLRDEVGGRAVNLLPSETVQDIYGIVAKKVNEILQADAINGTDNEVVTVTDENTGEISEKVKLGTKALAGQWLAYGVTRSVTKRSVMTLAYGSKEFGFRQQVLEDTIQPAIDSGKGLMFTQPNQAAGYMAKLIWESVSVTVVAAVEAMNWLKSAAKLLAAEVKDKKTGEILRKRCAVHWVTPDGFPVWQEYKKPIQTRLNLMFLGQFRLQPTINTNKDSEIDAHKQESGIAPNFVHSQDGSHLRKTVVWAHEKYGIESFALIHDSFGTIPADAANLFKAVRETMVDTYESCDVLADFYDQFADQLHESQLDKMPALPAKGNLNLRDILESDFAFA

Substance	In vitro transcription (mRNA quantity relative to unmodified NTP in percentage) [1]	In vitro translation (Protein quantity relative to unmodified mRNA in percentage) [2]
1-methyoxymethyl-pseudouridine [compound 10]	>50%	>50%
5-methoxycarbonyamino-uridine [compound 5]	>50%	<50%
1-methoxyethyl-pseudouridine [compound 11]	>50%	<50%
7-methyl-9-deazaguanosine [compound 16]	>50%	<50%

From patent US11377656B2, “Chemically modified messenger RNA's” (Novartis AG, priority 2016, dated 2022)
